Marks after values point to notes of the source that are not given here.
Assays:
lipase = test: Anti-lipase activity in tubo (1,2-diglyceride to glycerol, absorbance 570 nm); format: biochemical; details: positive reference, concentration not given
Description: The subject of the method is to study the capacity of a composition to provoke and regulate the activity of the lipase enzyme by an in tubo method, said enzyme having an inflammatory action. Lipase has the capacity to convert the colorless 1,2-diglyceride into glycerol, which is pink in color. The samples for the evaluation test are placed in tubo in the presence of lipase and of 1,2-diglyceride, and the absorbance of the samples is measured in a spectrophotometer at a wavelength of 570 nm at the end of their preparation, then after 60 minutes of incubation at 37° C. under the same spectral conditions. By virtue of a range of glycerol, the lipase activity of the samples can be calculated, as can the percentage inhibition, by the following formulas: Lipase activity=(amount of glycerol formed between 0 and 60 minutes)/(60 minutes×sample volume) Percentage inhibition=100×[(lipase activity of control group)−(lipase activity of test product)]/(lipase activity of control group) Statistical Elements: The values are expressed as means+/−standard deviation. The statistical analysis of the results was conducted using a two-sided Student test with a significance threshold set at 5%, by pairwise comparison of the series of values. […]

TLR-3 = test: IL-8 and hBD2 production by normal human keratinocytes, TLR-3 activated by poly(I:C) (ELISA); format: cell-based; details: cells stimulated with poly(I:C), 100 nM
Description: The anti-inflammatory effect of compositions was evaluated on normal human keratinocytes under conditions imitating an imbalance in the cutaneous microbiota through the activation of 3 TLRs (Toll-Like Receptors). These receptors are activated by recognition of specific elements of the microbes, and their function is to alert the immune system in order to activate the body's defenses. In this model, the imbalance in the microbiota was modeled with various stimuli imitating a skin infection: • TLR-5 was activated by flagellin (the main protein of the flagellar filament, present in virtually all bacteria) • TLR-2 was activated by zymosan (glycoprotein complex extracted from yeast membranes) • TLR-3 was activated by poly(I:C) (a synthetic analog of the double-stranded RNA found in viruses)
The effect of the compositions tested was evaluated on the basis of their capacity to modulate the production of IL-8 and of hBD2 induced by these stimuli, using specific “ELISA” kits. The concentration of total proteins was also evaluated, in order to standardize the production of cytokin (IL-8) and of antimicrobial peptide (hBD2).
The values are expressed as means+/−sem [standard error of the mean=standard deviation/root (number of values)].
For each treatment, a calculation was made of: % protection=100×[mean (cells+treatment)−mean (stimulated cells)]/[mean (unstimulated cells)−mean (stimulated cells)] The statistical analysis of the results was conducted using a two-sided Student test with a significance threshold set at 5%, by pairwise comparison of the series of values. A difference between the efficacy of two products is considered to be: • significant if p<0.05; • “at the limit of significance” if 0.05≤p<0.1; • and not significant if p>0.1. B.2.2. Results Obtained In the three tables which follow: For stimulated cells: *** p<0.001 vs unstimulated cells. For treated and stimulated cells: *** p<0.001 vs stimulated cells. The results obtained following activation of TLR-5 by flagellin, the results are set out in table 10 below: […]

SMILES	Lipase activity (lipase; 60 minutes at 37° C., mean +/- standard deviation)	% inhibition of the lipase (lipase; vs control)	IL-8 (TLR-3)	IL-8 % protection (TLR-3)	hBD2 % protection (TLR-3)	hBD2 (TLR-3; mean +/- sem)
O=C1O[C@H]([C@@H](O)CO)C(O)=C1O [Vitamin C]	2.11 +/− 0.01 mU/mL	50*** %				
CO/C1=C\C(C)=C\[C@@H](C)[C@@H](O)[C@@H](C)C/C(C)=C/C=C/[C@H](OC)[C@@H]([C@@H](C)[C@@H](O)[C@H](C)[C@@]2(O)C[C@@H](O)[C@H](C)[C@@H](C(C)C)O2)OC1=O [bafilomycin]			<19 pg/mg proteins	100%***	100%***	17 +/− 2 pg/mg proteins

Source: patent publication US12403077B2, “Use of a new composition for preventing or slowing the appearance of signs of inflammation” (SOCIETE D'EXPLOITATION DE PRODUITS POUR LES INDUSTRIES …, priority 2018, dated 2025)
